The record followed here is patent publication US6017520A, “Penetration enhancement of topically applied therapeutic formulations” (Block Drug Company, Inc., priority 1997, dated 2000).

This data set in a line: Penetration study, Bronaugh flow-through diffusion cell system (permeability coefficient Kp). As to conditions: 0.5 percent ketoprofen in the presence of vitamin E.

Take `CC(C(=O)O)c1cccc(C(=O)c2ccccc2)c1` (stereo not shown) [ketoprofen]: the penetration rate result is “greater than that of 1.0 percent ketoprofen without vitamin E”.
